Laboratory results published in patent US8765705B2, “Oligonucleotides inhibiting cellular migration” (Centre National de la Recherche Scientifique, priority 2009, dated 2014).
Entries after “also recorded” stand apart in the source; their conditions may differ. d = 2'-deoxy (DNA); r = 2'-OH (RNA)

Tests used:
[1] = tested on: TLR3, TLR7, IL6, IL12b, IFNβ, IFNγ, and IP10; experiment: Induction of interferon or inflammatory cytokine genes in the spleen of nude mice, real time RT-PCR; settings: five hours after one i.p. injection of 4 mg/kg in PBS
Experimental: The mRNA level of the indicated genes, normalized to cyclophilin A, was quantified by real time RT-PCR in the spleen.
All the injections were carried out with a dose of 4 mg/kg siRNA diluted in PBS. Five hours after injection, mRNAs coding several genes involved in innate immune response or in inflammation were quantified by quantitative real time RT-PCT.

C4-2 cells [2] = experiment: Migration assay, modified Boyden chamber, C4-2 cells; assay type: cell-based, human; settings: siRNA-transfected cells, towards fresh medium
Experimental: The cell migration capacity can be measured in vitro using a modified Boyden Chamber. Boyden Chamber consists of two compartments separated by a permeable membrane. Cells are placed in the upper chamber and the chemotactic factors in the lower chamber. Cells migrating through the membrane are counted.
The migration capacity was measured using a modified Boyden Chamber. Cells (40,000) were seeded in RPMI 1% FBS in the upper part of a cell culture-chamber-insert system separated from the lower chamber by a 8 μm PET membrane (BD Biosciences, Le Pont de Claix, France). RPMI 10% FBS, or conditioned medium was added in the lower compartment. Eighteen hours later, non migrating cells in the upper compartment were scrapped off using a cotton swab. Cells on the lower side of the membrane were fixed with methanol at −20° C. and stained with Hoechst 33258 (Sigma-Aldrich, Saint-Quentin Fallavier, France). Membranes were then excised, mounted on a glass side with Glycergel (DAKO) and cells counted.

TSP1 mRNA = TSP1 mRNA level in C4-2 cells, real-time RT-PCR normalized to cyclophilin A; assay type: cell-based, human
Experimental: (§1) LNCaP and C4-2 cells were grown in RMPI containing 10% fetal calf serum, PC-3 cells in DMEM containing 10% fetal calf serum. The Hiperfect reagent (Qiagen, Courtaboeuf, France) was used to transfect cells in 24 wells plates with the indicated siRNAs (10 nM) as recommended by the manufacturer. A metabolic activity assay (WST1, Roche Diagnostics, Meylan France) was used to measure cell proliferation. To mimic hypoxia, cells were grown in the presence of 300 μM cobalt chloride for 48 h. For hypoxic conditions, cells were cultured at 37° C. with 5% CO2, 94% N2 and 1% O2 in a hypoxic incubator (Binder GmbH, Tuttligen, France).
(§2) Total RNA was isolated using TRIzol reagent (Invitrogen, Cergy Pontoise, France). RNA were retrotranscribed using a High capacity cDNA Reverse Transcription Kit (Applied Biosystems, Courtaboeuf, France). cDNA was quantified by real time PCR using the Power SYBR® Green PCR Master Mix (Applied Biosystems, Courtaboeuf, France). Human Cyclophilin A was used as an internal control. The sequences of the PCR primers are indicated in the supplementary table 2.

C4-2 cells [3] = experiment: Intracellular calcium concentration, Fura-2 calcium imaging; assay type: cell-based, human; settings: 300 μM
Experimental: Fluorescence imaging was carried out in Hank's balanced salt solution (HBSS) containing 142 mM NaCl, 5.6 mM KCl, 1 mM MgCl2, 2 mM CaCl2, 0.34 mM Na2HPO4, 0.44 mM KH2PO4, 10 mM HEPES, and 5.6 mM glucose. Cytosolic calcium concentration was measured using Fura-2 loaded cells (2 μM) as previously described (Mariot et al., 2002). The intracellular calcium concentration was derived from the ratio of the fluorescence intensities for each of the excitation wavelengths (F340/F380) and from the Grynkiewicz equation (Grynkiewicz et al., 1985).

TRPV3 mRNA = TRPV3 mRNA level in C4-2 cells, real-time RT-PCR; assay type: cell-based, human; settings: 48 h, 300 μM
Experimental: as §1, §2

TSP1 [4] = experiment: TSP1 expression in PC3 cells exposed to CoCl2; assay type: cell-based, human
Experimental: FIG. 4G represents the induction of VEGF (grey) and TSP1 (black) mRNA levels normalized to cyclophilin A levels in PC3 cells grown for the indicated periods in cobalt chloride as compared to the respective mRNA levels in control medium at the same time point.
FIG. 4H represents TSP1 immunodetection in PC3 cells grown for 48 h in control conditions (N) or in the presence of 300 μM CoCl2 to mimic hypoxia (H).
as §1

TSP1 [5] = experiment: TSP1 protein expression in C4-2 cells (indirect immunofluorescence); assay type: cell-based, human; settings: for TSP1 protein level: C4-2 cells transfected with siRNA (10 nM), 48 h after transfection
Experimental: FIG. […]
as §1

C4-2 cells [6] = experiment: Cell proliferation, metabolic activity assay (WST1); assay type: cell-based, human; settings: C4-2 cells transfected with siRNA
Experimental: as §1

C4-2 cells [7] = experiment: Apoptosis, enzymatic activity of caspases 3 and 7; assay type: cell-based, human; settings: for effect on apoptosis: C4-2 cells transfected with siRNA; for enzymatic activity of caspases 3 and 7 versus control: C4-2 cells, 48 h after transfection
Experimental: FIG. 1F represents the enzymatic activity of caspases 3 and 7 measured 48 h after transfection of C4-2 cells with the TSP1a- or TSP1b-siRNA.

TSP1 [8] = experiment: TSP1 secretion in the culture medium of C4-2 cells (western blotting); assay type: cell-based, human; settings: 2 h treatment
Experimental: FIG. 2B represents TSP1 secretion in the cell culture medium by C4-2 cells treated for 2 h by vehicle (left) or thapsigargin (1 μM) (right). The secreted TSP1 is measured by western blotting in the cell culture medium. FIG. 2D represents TSP1 secretion in the cell culture medium by C4-2 cells treated for 2 h by vehicle or camphor at the indicated doses. The secreted TSP1 is measured by western blotting in the cell culture medium. FIG. 3D represents Western blot detection of TSP1 in the culture medium of C4-2 cells transfected with cont- or TSP1-siRNA 48 h after transfection.

[9] = C4-2 cells transfected with siRNA (10 nM), 2 days after transfection

## Poly (I:C) [reference compound]
[1]
  induction of TLR3, TLR7, IL6, IL12b, IFNβ, IFNγ, and IP10 mRNA: significant increase

## CD36: siRNA targeting CD36: UACAGACAGUUUUGGAUCUdTdT / AGAUCCAAAACUGUCUGUAdTdT (chain 1 UACAGACAGUUUUGGAUCUTT; chain 2 AGAUCCAAAACUGUCUGUATT; sugars from the 5' end r19 d2, backbone not given here)
C4-2 cells [2]
  migration of C4-2 cells: strongly reduced

## [Cl][Co][Cl] [cobalt chloride]
TSP1 mRNA; C4-2 cells, 48 h, 300 μM
  TSP1 mRNA level: strongly induced
C4-2 cells [3]; 48 h
  intracellular calcium concentration, resting level: increased over two fold
C4-2 cells [3]; after 30 min
  intracellular calcium concentration, resting level: not modified
TRPV3 mRNA
  TRPV3 mRNA level: strongly induced
TSP1 [4]
  TSP1 expression at the mRNA level: induced
TSP1 [4]; 48 h, 300 μM
  TSP1 expression at the protein level: induced

## TSP1b-siRNA: Duplex UACCCGAGACGAUUGUAUGdTdT / CAUACAAUCGUCUCGGGUAdTdT targeting specifically the human TSP1 mRNA (sense UACCCGAGACGAUUGUAUGTT; antisense CAUACAAUCGUCUCGGGUATT; sugars from the 5' end r19 d2, backbone not given here)
TSP1 mRNA; [9]
  TSP1 mRNA level: significantly reduces
TSP1 [5]
  TSP1 protein level: significantly reduces
C4-2 cells [6]
  effect on cell proliferation: no effect; also recorded: without affecting
C4-2 cells [7]
  effect on apoptosis: no effect
  enzymatic activity of caspases 3 and 7 versus control: not statistically different

## C/C=C(/C)C(=O)O[C@H]1C(C)=C2[C@H]([C@@H]1OC(=O)CCCCCCC)[C@@](C)(OC(C)=O)C[C@H](OC(=O)CCC)[C@@]1(O)[C@H]2OC(=O)[C@@]1(C)O [thapsigargin, reference compound]
TSP1 [5]; C4-2 cells, 2 h treatment, 1 μM
  TSP1 in the cytosol: rapid depletion

## CC12CCC(CC1=O)C2(C)C (stereo not drawn) [camphor, reference compound]
TSP1 mRNA; C4-2 cells, 6 h treatment
  TSP1 mRNA level: dose dependent increase
TSP1 [8]
  TSP1 secretion into the culture medium: stimulated

## TSP1a-siRNA: Duplex CCUUGACAACAACGUGGUGdTdT / CACCACGUUGUUGUCAAGGdTdT targeting TSP1 mRNA, sequence conserved between human and mouse (sense CCUUGACAACAACGUGGUGTT; antisense CACCACGUUGUUGUCAAGGTT; sugars from the 5' end r19 d2, backbone not given here)
TSP1 mRNA; [9]
  TSP1 mRNA level: significantly reduces
TSP1 [5]
  TSP1 protein level: significantly reduces
C4-2 cells [6]
  effect on cell proliferation: no effect; also recorded: without affecting
C4-2 cells [7]
  effect on apoptosis: no effect
  enzymatic activity of caspases 3 and 7 versus control: not statistically different

## β3: siRNA targeting β3 integrin: GGAGAAUCUGCUGAAGGAUdTdT / AUCCUUCAGCAGAUUCUCCdTdT (chain 1 GGAGAAUCUGCUGAAGGAUTT; chain 2 AUCCUUCAGCAGAUUCUCCTT; sugars from the 5' end r19 d2, backbone not given here)
C4-2 cells [2]
  migration of C4-2 cells: strongly reduced

## TRPV6: siRNA targeting TRPV6: GGAAGACAGGCAAGAUCUCdTdT / GAGAUCUUGCCUGUCUUCCdTdT (chain 1 GGAAGACAGGCAAGAUCUCTT; chain 2 GAGAUCUUGCCUGUCUUCCTT; sugars from the 5' end r19 d2, backbone not given here)
TSP1 mRNA; [9]
  TSP1 mRNA level: reduced

## TRPV2: siRNA targeting TRPV2: UAAGAGUCAACCUCAACUAdTdT / UAGUUGAGGUUGACUCUUAdTdT (chain 1 UAAGAGUCAACCUCAACUATT; chain 2 UAGUUGAGGUUGACUCUUATT; sugars from the 5' end r19 d2, backbone not given here)
TSP1 mRNA; [9]
  TSP1 mRNA level: reduced
